Laboratory results: patent US20230293519A1, “INTEGRIN INHIBITORS AND USES THEREOF IN COMBINATION WITH OTHER AGENTS” (Pliant Therapeutics, Inc., priority 2021, published 2023)
“Also recorded” adds a separate entry of the source.

Key:
[1] = tested on: normal human bronchial epithelial cells; experiment: LAP adhesion assay (xCELLigence cell index), bronchial epithelial cells; type: cell-based; details: normal bronchial epithelial cells (express αvβ6)
Excerpt: Two latency associated peptide (LAP) adhesion binding assays were devised using primary human lung cells, including normal (healthy) human bronchial epithelial cells and human lung fibroblasts (healthy and IPF).
Human bronchial epithelial cells are known to express αvβ6 integrin in culture.

SMAD3 phosphorylation = experiment: Murine bleomycin model: SMAD3 phosphorylation; type: in vivo, mouse; details: bleomycin mice
Protocol: Mice (C57BL/6) were divided into healthy (n=15), vehicle-treated (n=15), and test article-treated (n=15 per dose) groups. Mice in the vehicle and test article-treated groups were administered 3 U/kg of bleomycin (Teva Pharmaceuticals; North Wales, PA) via oropharyngeal aspiration while under anesthesia on day 0. Healthy animals were administered water in a similar fashion. Starting on day 7, mice in the control group were administered PBS vehicle, 130 uL, by oral gavage, BID for 14 days. Also starting on day 7, mice in the test group were administered compound 5 in PBS by oral gavage, BID for 14 days, at relative dosages of 1x, 2.5x and 5x. […] From day 14 through day 21, 9 of the 15 mice were administered ^2H2O for labeling. All mice were sacrificed on day 21 and tissues were collected. Samples were prepared for analysis either directly from lung tissue, or by bronchoalveolar lavage, which washes out the bronchiolar and alveolar space with saline to produce a bronchoalveolar lavage fluid (BALF) in which 80-90% of cells are alveolar macrophages.
FIG. 4C is a graph showing that compared to the healthy mice, lung tissue in the vehicle-treated mice experienced a substantial increase in SMAD3 phosphorylation, which is a measure of TGF-β signaling-related kinase activity. […]

lung Col1a1 expression [2] = experiment: Precision cut lung slices of mice under chronic bleomycin exposure (single vs dual integrin inhibition); type: cell-based, mouse; details: slices cultured 7 days
Protocol: Mice (C57BL/6) were administered 3 U/kg of bleomycin (Teva Pharmaceuticals; North Wales, PA) on Day 0 and 1 U/kg of bleomycin on days 14, 28, 42 and 56 via oropharyngeal aspiration while under anesthesia. At day 70, 14 days after the final bleomycin insult, precision cut lung slices were obtained. Following euthanization, 2% low gelling temp agarose was injected into the mouse lungs via the trachea. […] The lobes were then subjected to precision slicing to obtain samples for culture using a microtome (Compresstome VF-300-0Z, Precisionary; Greenville, NC). Individual slices were distributed in a multiwell culture plate and cultured for 7 days under control (DMSO) and test compound conditions. […]
During the culture period, slices in the control group were treated with DMSO and slices in the test group were treated with a DMSO solution of one of: the selective antibody αvβ6 inhibitor 3G9; the αvβ1-selective small molecule inhibitor; a combination of the selective antibody αvβ6 inhibitor 3G9 and the αvβ1-selective small molecule inhibitor; compound 5; and the small molecule ALK5 inhibitor. The selective αvβ1 and αvβ6 integrin inhibitors were analyzed at ≥ their respective IC90 concentrations for inhibition of TGF-beta activation. […] The small molecule ALK5 inhibitor was analyzed at 10x its reported IC50 value.

lung Col1a1 expression [3] = experiment: Precision cut lung slices of mice under chronic bleomycin exposure (vs pirfenidone and nintedanib); type: cell-based, mouse; details: slices cultured 7 days; nintedanib and pirfenidone at 10x therapeutic concentrations
Protocol: Mice (C57BL/6) were administered 3 U/kg of bleomycin (Teva Pharmaceuticals; North Wales, PA) on Day 0 and 1 U/kg of bleomycin on days 14, 28, 42 and 56 via oropharyngeal aspiration while under anesthesia. At day 70, 14 days following the final bleomycin insult, precision cut lung slices were obtained. Following euthanization, 2% low gelling temp agarose was injected into the mouse lungs via the trachea. […] The lobes were then subjected to precision slicing to obtain samples for culture using a microtome (Compresstome VF-300-0Z, Precisionary; Greenville, NC). Individual slices were distributed in a multiwell culture plate and cultured for 7 days under control (DMSO) and test compound conditions. The viability of the slices over the course of culturing was confirmed by WST-1 assay of mitochondrial activity.
During the culture period, slices in the control group were treated with DMSO and slices in the test group were treated with a DMSO solution of one of: compound 5; nintedanib; pirfenidone; a combination of nintedanib and compound 5; a combination of pirfenidone and compound 5; or the small molecule ALK5 inhibitor. Compound 5 was […] effective to equal or exceed its respective IC50 values at αvβ6 and αvβ1. The small molecule ALK5 inhibitor was analyzed at 10x its reported IC50 value. Nintendanib and pirfenidone were analyzed at concentrations 10x their reported therapeutic concentrations.

[4] = Phase 2a trial in IPF: pharmacokinetics; type: in vivo, human; details: IPF participants
Excerpt: Based on sparse sampling, overall Compound 5 pharmacokinetics and % unbound in IPF were consistent with that of previous studies. […] Overall % unbound was ~0.3 to 0.5%. Full PK curve will be predicted using population PK model to project AUC0_24 and Cmax.

[5] = tested on: patients with idiopathic pulmonary fibrosis (IPF); experiment: Phase 2a trial in IPF: safety and tolerability
Excerpt: Approximately 80% of the enrolled patients were on standard of care and were equally distributed between nintedanib and pirfenidone.

COCCN(CCCCc1ccc2c(n1)NCCC2)CC[C@H](Nc1ncnc2ccccc12)C(=O)O [Compound 5, (S)-4-((2-methoxyethyl)(4-(5,6,7,8-tetrahydro-1,8-naphthyridin-2-yl)butyl)amino)-2-(quinazolin-4-ylamino)butanoic acid]
inhibition of cell adhesion to LAP [1]: substantially inhibited | pSMAD3 levels in the lung, % of the untreated levels (SMAD3 phosphorylation): approximately 50% | SMAD3 phosphorylation in lung tissue vs vehicle (SMAD3 phosphorylation; 1x, 2.5x, 5x dose PO BID 14 days from day 7): substantial, statistically significant dose-dependent reductions | lung Col1a1 expression vs DMSO control (lung Col1a1 expression [2]): decreased lung Col1a1 expression substantially | lung Col1a1 expression vs DMSO control (lung Col1a1 expression [3]): substantial, statistically significant | dose proportionality of plasma concentrations ([4]; 40, 80, 160 mg once daily): generally dose proportional increases; also recorded: increased approximately proportionally with dose | fraction unbound ([4]; human, in vivo): 0.003 to 0.005 | discontinuations due to adverse events ([5]; 12 weeks): no discontinuations due to adverse events | severity of most treatment emergent adverse events (TEAE) ([5]; 12 weeks): mild or moderate | treatment related deaths or drug related serious adverse events (SAE) ([5]; 12 weeks): No treatment related deaths or drug related serious adverse events; also recorded: No treatment related SAEs or deaths | patients completing 12 weeks of treatment (65 of 67) ([5]; 40, 80, 160 mg once daily): 97% | tolerability ([5]; 40, 80, 160 mg once daily, 12 weeks): safe and well tolerated | serious adverse events ([5]; Compound 5 alone): did not result in serious adverse events
